# Data published in US5441887A, “Rapid degradation of halogenated hydrocarbons by soluble methane monooxygenase” (Regents of the University of Minnesota, priority 1994, dated 1995).
# Legend:
# [1] = system: Methylosinus trichosporium OB3b; assay: No-headspace (single phase) assay of TCE degradation by continuously cultured Mt OB3b; format: cell-based; settings: for Rates: 0% methane, 10 min-15 min; for micromoles TCE removed · hr^-1 · g dry cells^-1: cells cultured with methane 45 ml/min, air 135 ml/min; for Micromoles TCE removed: culture 0.64 g cells/l
# Protocol: Each culture of Mt OB3b was added to 1.8 ml serum bottle prewarmed to 30° C. and sealed with an 11 mm teflon-lined rubber septa. For comparisons requiring similar initial dissolved oxygen levels, anaerobic make-up media (usually 0.6 ml) was added to the bottles first and then the bottles were sealed. Air-saturated 30° C. Higgins media prepared as in Example I was added via gas-tight syringe (1.0 ml), while 1 atm pressure was maintained by allowing air to bleed through a 25 gauge needle. Finally, culture was added (concentrated to give desired density) while remaining headspace-was bled out through the 25 gauge needle. TCE was added with a syringe at the bottom of the sealed bottle, with a syringe at top of the bottle removing equivalent volume of culture. The assay time course was started with TCE (substrate) addition. Incubation was performed at 30° C. with agitation at 200 rpm on a platform shaker.
# Assays were terminated by extraction at desired time points. The liquid-liquid extraction technique used 0.6 ml of pentane containing 1,2-dibromoethane as an internal standard added via gas-tight syringe to inverted assay bottle, while a second syringe with a needle below first needle level collected displaced solution. Partitioning was brought to equilibrium by centrifugation of bottles at 5000 rpm for 10 min. The organic layer was removed by gas-tight syringe and placed in a 1 ml serum bottle for chromatographic analysis. In some cases, dilution of sample or split injection was necessary. Electron-capture detection was preferred. The following gas chromatography operating parameters were used:
# The following Tests 1, 2 and 3 were conducted according to the no-headspaceassay procedure described generally above. […]
# In prewarmed (30° C.) 120 ml serum bottles, 1 ml of Mt OB3b cell suspension grown in a chemostat (A600 =1.460) were mixed with 9 mls of 30° C. Higgins media prepared as in Example I. One bottle was prepared by adding "spent" media from the chemostat (decant media after pelleting cells with centrifugation--10,000 rpm for 10 minutes) rather than fresh Higgins media. The bottles were sealed with 20 mm teflon-lined rubber septa, evacuated and refilled with air (0% methane). One bottle was heat-killed and used as a control.
# 1.76 ml of Mt OB3b cell suspension was added to sealed 1.8 ml serum bottles (25 gauge needle used to equilibrate pressure). 45 μl of 4 mM TCE stock were added to start the assay. Bottles were incubated at 30° C. with agitation on a shaker bath. Bottles were sacrificed at 2.5, 5.0, 10.0, 15.0 and 20.0 mins by displacing 0.6 ml aqueous solution with pentane containing 1 ppm 1,2-dibromoethane as an internal standard. Analysis was performed on a HP 5790A GC using ECD.
# [2] = system: Methylosinus trichosporium OB3b; assay: Two-phase headspace assay of TCE degradation by continuously cultured Mt OB3b; format: cell-based
# Protocol: Each culture of Mt OB3b was added in 2 ml quantities to 10 ml serum bottles. Bottles were sealed with 20 mm teflon-lined rubber septa. TCE was added to start the assay. Headspace accounted for 80% of total volume within bottles, but TCE concentration was added based on 2 ml aqueous phase. TCE resided principally in the headspace. All bottles were inverted in order to prevent possible TCE loss by trapping the compound in the headspace between the liquid phase and glass. Samples were incubated inverted at 30° C. with agitation (200 rpm on a platform shaker).
# Headspace incubations were analyzed by direct injection of headspace into a gas chromatograph. This method may be performed without sacrificing a sample. It is important to prepare sound calibration curves for quantitation. The best method for external standardization is to prepare samples as if running an assay and heat-killing at 80° C. for 10 mins prior to TCE addition. Samples were incubated for 30 mins under test conditions to allow adequate time for TCE to partition among the numerous phases (air, water, cell material, and the like). Headspace samples were injected into a gas chromatograph using either FID or ECD. Numerous TCE concentrations were used to obtain a sound standardization curve.
# Headspace assays of TCE degradation were conducted by adding bacterial cells from the continuous culture described in Example II or cells diluted with spent Higgins medium (2 mls) into assay vials (10 ml vials).
# Rates were calculated from peak heights of recorder tracings from a gas chromatograph equipped with an electron capture detector.
# [3] = target: T1, soluble methane monooxygenase (reductase, component B, hydroxylase) (Methylosinus trichosporium, UniProt P27353); assay: Degradation of 14C-TCE by purified methane monooxygenase components with NADH, HPLC analysis; format: biochemical, Methylosinus trichosporium OB3b
# T1 construct: The cells were disintegrated by sonication; made in house; host or cells: native protein purified from cell paste of the methane-oxidizing bacterium (no recombinant host given)
# T1 sequence (P27353 1-526): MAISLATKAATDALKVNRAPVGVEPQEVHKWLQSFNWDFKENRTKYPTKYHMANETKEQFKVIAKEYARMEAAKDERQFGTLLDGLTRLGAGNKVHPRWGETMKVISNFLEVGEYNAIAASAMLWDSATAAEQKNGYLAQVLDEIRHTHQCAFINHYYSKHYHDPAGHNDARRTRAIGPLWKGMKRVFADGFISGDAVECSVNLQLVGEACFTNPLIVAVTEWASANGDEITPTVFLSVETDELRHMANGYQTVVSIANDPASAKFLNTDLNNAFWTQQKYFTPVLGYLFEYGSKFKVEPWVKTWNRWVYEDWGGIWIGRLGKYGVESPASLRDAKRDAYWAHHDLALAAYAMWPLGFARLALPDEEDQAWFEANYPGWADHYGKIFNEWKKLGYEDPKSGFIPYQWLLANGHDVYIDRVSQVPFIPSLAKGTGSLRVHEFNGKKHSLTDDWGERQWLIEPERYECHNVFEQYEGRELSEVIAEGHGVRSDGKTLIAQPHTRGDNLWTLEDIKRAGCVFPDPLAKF
# T1 sequence (P27354 1-394 partner): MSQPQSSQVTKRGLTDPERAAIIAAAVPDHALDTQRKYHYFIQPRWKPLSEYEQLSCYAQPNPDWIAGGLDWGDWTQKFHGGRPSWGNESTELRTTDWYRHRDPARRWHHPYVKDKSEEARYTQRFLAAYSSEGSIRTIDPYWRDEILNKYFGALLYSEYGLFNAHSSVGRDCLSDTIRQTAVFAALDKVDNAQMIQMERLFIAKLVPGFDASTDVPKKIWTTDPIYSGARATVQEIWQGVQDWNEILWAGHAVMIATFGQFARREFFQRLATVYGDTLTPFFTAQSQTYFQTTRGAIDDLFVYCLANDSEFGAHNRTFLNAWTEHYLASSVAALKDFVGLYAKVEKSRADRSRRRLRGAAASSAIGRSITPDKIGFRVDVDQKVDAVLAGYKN
# T1 sequence (P27355 1-169 partner): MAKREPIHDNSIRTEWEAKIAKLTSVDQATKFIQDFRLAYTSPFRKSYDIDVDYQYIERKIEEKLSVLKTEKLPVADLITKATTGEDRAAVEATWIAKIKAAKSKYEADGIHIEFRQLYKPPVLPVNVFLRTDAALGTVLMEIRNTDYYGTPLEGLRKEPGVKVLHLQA
# Protocol: The three components of methane monooxygenase, reductase, component B, and hydroxylase, were purified by the method of Fox and Lipscomb, supra, the disclosure of which is hereby incorporated by reference. All purification procedures were performed at 4° C. The cell paste (100 g) was suspended in 200 ml of 25 mM MOPS, pH 7.0, containing 200 μ M Fe(NH4 )2 (SO4)2.6H2 O and 2 mM cysteine (Buffer A). The cells were disintegrated by sonication. The sonicated suspension was centrifuged at 48000×g for 60 min. The supernatant was decanted, diluted with an additional 100 ml of buffer A, and adjusted to pH 7.0. The cell free extract was immediately loaded onto a fast flow DEAE Sepharose CL-6B column (40 mm×250 mm) equilibrated with buffer A. The column was then washed with 600 ml of buffer A. All MMO components were completely adsorbed. The MMO components were eluted with a 2000 ml gradient of 0.0 to 0.40M NaCl in buffer A. The hydroxylase eluted at 0.075M NaCl. The two additional fractions required for reconstituted hydroxylase activity, component B and the reductase, eluted at 0.18M NaCl and 0.27M NaCl, respectively.
# 105 nmol of uniformly labelled ^14 C-TCE was added to each vial by injection through the rubber septum above the reaction mixture until a final TCE concentration of 70 μM was reached. The reaction was allowed to proceed for 2 min at 25° C. and then quenched by the addition of sulfuric acid (Sigma Chemical Company, St. Louis, Miss.) at pH 2.0.
# Following centrifugation to remove precipitated protein, the reaction mixtures were analyzed by high pressure liquid chromatography (HPLC).
# Mt OB3b = assay: TCE oxidation by Mt OB3b grown by conventional methods (shake flask); format: cell-based, Methylosinus trichosporium OB3b; settings: initial TCE concentrations of one ppm or higher
# [4] = system: methane-oxidizing bacteria; settings: soil exposed to 0.6% natural gas in air for 3 weeks, TCE average 150 μg/l in influent; cited from earlier work
# [5] = system: methane-utilizing mixed culture; settings: Fogel et al.; cited from earlier work
# methanotrophic bacteria = settings: optimal conditions, prior reports; cited from earlier work
# [6] = system: Methylococcus capsulatus Bath; settings: aerobe Methylococcus capsulatus Bath; cited from earlier work
structure (smiles),measurement,setting,value
"ClC=C(Cl)Cl [TCE, 1,1,2-trichloroethene]",Rate of TCE-utilization (no headspace assay),"[1]; Test 1, culture turbidity A600 1.310",336 μmoles·hr^-1·g cells^-1
same,Rate of TCE-utilization (no headspace assay),"[1]; Test 2, culture turbidity A600 1.410",1070 μmoles·hr^-1·g cells^-1
same,Rate of TCE-utilization (no headspace assay),"[1]; Test 3, culture turbidity A600 1.460",2400 μmoles·hr^-1·g cells^-1
same,Rate when most rapid oxidation of TCE occurred,"[1]; Test 3, times of most rapid oxidation",approximately 3500 μmoles/h^-1.g cells^-1
same,Rates,"[1]; Test 3 Run 2, 1/10 dilution in Higgins media",3200 μmoles·h^-1·g cells^-1
same,Rates,"[1]; Test 3 Run 3, 1/10 dilution in spent Higgins media from chemostat",3960 μmoles·h^-1·g cells^-1
same,micromoles TCE removed · hr^-1 · g dry cells^-1,[1]; concentration of TCE 10 μM,829 micromoles TCE removed·hr^-1·g
same,micromoles TCE removed · hr^-1 · g dry cells^-1,[1]; concentration of TCE 25 μM,1104 micromoles TCE removed·hr^-1·g
same,micromoles TCE removed · hr^-1 · g dry cells^-1,[1]; concentration of TCE 50 μM,1194 micromoles TCE removed·hr^-1·g
same,Micromoles TCE removed,"[1]; concentration of TCE 40 μm, 5-10 min.",2.96 µmol/min
same,Micromoles TCE removed,"[1]; concentration of TCE 80 μm, 5-10 min.",5.69 µmol/min
same,Micromoles TCE removed,"[1]; concentration of TCE 80 μm, 10-15 min.",3.03 µmol/min
same,Micromoles TCE removed,"[1]; concentration of TCE 320 μm, 5-10 min.",15.54 µmol/min
same,Micromoles TCE removed,"[1]; concentration of TCE 320 μm, 10-15 min.",10.2 µmol/min
same,Micromoles TCE removed,"[1]; concentration of TCE 640 μm, 10-25 min.",10.48 µmol/min
same,Km,"[1]; concluded from Table VIII and other experiments, read-out: Ks for TCE oxidation",~5 µM
same,Rate of TCE oxidation,"[1]; methane added 5% saturation, cell density approx. 0.16 g/l, nominal initial TCE 80 μM",3350 μmoles·hr^-1·g cells^-1
same,Rate of TCE oxidation,"[1]; methane added 10% saturation, cell density approx. 0.16 g/l, nominal initial TCE 80 μM",3000 μmoles·hr^-1·g cells^-1
same,Rate of TCE oxidation,"[1]; methane added 20% saturation, cell density approx. 0.16 g/l, nominal initial TCE 80 μM",875 μmoles·hr^-1·g cells^-1
same,Rate of TCE oxidation,"[1]; methane added 50% saturation, cell density approx. 0.16 g/l, nominal initial TCE 80 μM",110 μmoles·hr^-1·g cells^-1
same,Rate of TCE oxidation,"[1]; methane added: none, cell density approx. 0.16 g/l, nominal initial TCE 80 μM",660 μmoles·hr^-1·g cells^-1
same,Rate of TCE oxidation,"[1]; some cell batches, without any methane present",approximately 4000 micro-moles.hr^-1.g cells^-1
same,Rate at which cells are believed able to oxidize TCE,"[1]; under optimal conditions, belief, extrapolated","10,000 μmoles.h^-1.g cells^-1"
same,"Rate, micromoles TCE oxidized · g cells^-1 · hr^-1","[2]; cell density .070 g·l^-1, initial TCE 22 micromolar",808 micromoles TCE oxidized·g cell
same,"Rate, micromoles TCE oxidized · g cells^-1 · hr^-1","[2]; cell density .173 g·l^-1, initial TCE 23 micromolar",461 micromoles TCE oxidized·g cell
same,"Rate, micromoles TCE oxidized · g cells^-1 · hr^-1","[2]; cell density .347 g·l^-1, initial TCE 22 micromolar",465 micromoles TCE oxidized·g cell
same,"Rate, micromoles TCE oxidized · g cells^-1 · hr^-1","[2]; cell density .521 g·l^-1, initial TCE 22 micromolar",308 micromoles TCE oxidized·g cell
same,"Rate, micromoles TCE oxidized · g cells^-1 · hr^-1","[2]; cell density .695 g·l^-1, initial TCE 22 micromolar",281 micromoles TCE oxidized·g cell
same,Rate of TCE degradation,"[2]; low cell densities, initial TCE 80 μM, culture cell mass 0.825 g/l (FIG. 1)",1200 micromoles TCE removed.hr^-1.g cells^-1
same,Products of TCE oxidation,"[3]; 70 μM 14C-TCE, 2 min at 25° C., HPLC","formic acid, glyoxylic acid, dichloroacetic acid, and chloral"
same,TCE converted to HPLC-detectable products,"[3]; 70 μM 14C-TCE, 2 min at 25° C., reductase 110 μg, component B 13 μg, hydroxylase 250 μg, NADH 0.1 mM",53%
same,Products of TCE oxidation in control incubations,[3]; each one of the methane monooxygenase components or NADH omitted,no products of TCE oxidation were detectable
same,Removal at which oxidation of TCE ceased,Mt OB3b,about 50%
same,Applied TCE passing through the soil,[4],less than 5%
same,Rate of TCE degradation,[5],approximately 2.5 μmoles per hour per gram of cells
same,Rates of TCE degradation reported,methanotrophic bacteria,exceed 100 μmoles per hour per gram of cells
ClC(Cl)Cl [chloroform],Oxidation rate,[6],35 nano-moles per gram of cells per minute
